Data as given in ChEMBL document CHEMBL3507680, “University of Dundee, Gates Library screen for HepG2 cell viability”.

Assay: Human HepG2 cell viability assay in 384 well format
Format: toxicity, cell-based
Set-up: dose 125 nL, time 70.5 hour; cytotoxicity at 70.5 h: concentration not given beside the values
Conditions: HepG2 cells, read-out: Inhibition

SMILES	cytotoxicity at 70.5 h [%]
CC(C)(C)[S+]([O-])CCNC(=O)c1csc(NC2CC2)n1 (stereo not drawn)	12.6
Cc1cc(C2CCCN2C(=O)Cn2c(C)cc(=O)c3ccccc32)on1 (stereo not drawn)	-6.42
CCn1cc(C(=O)NCc2ccc3c(c2)OCO3)c(C)n1	-1.15
COc1ccc(C(=O)NC(CC(=O)O)c2cccs2)c(OC)c1 (stereo not drawn)	-11.6
O=C(NCCC1CC1)NCc1cccc(-n2ccnc2)c1	-2.8
O=C(CCCn1cncn1)N1CCCCC1c1nccs1 (stereo not drawn)	-4.13
CCc1cnc(COc2ccc(OC3CCCCNC3=O)cc2)o1 (stereo not drawn)	-4.27
CCCc1cc(C(=O)N2CCCC(n3ccnc3C)C2)[nH]n1 (stereo not drawn)	32.7
CCCn1cc(-c2cc(C(=O)N(C)C)c3ccc(OC)cc3n2)cn1	-3.58
NC(=O)COc1ccc(CNCc2ccc(F)cc2)cc1	-4.15
COCCOc1ccc(NC(=O)N(CCCO)CC(C)(C)C)cn1	21.2
Cn1ccc(C(=O)N2CCC(c3cc(CCO)n(C)n3)C2)n1 (stereo not drawn)	-5.56
CC(C)CCc1n[nH]c(C(=O)O)c1I	-8.29
CNc1nc(C)cc(N2CCC(C(=O)O)(n3ccc(C(C)C)n3)CC2)n1	-4.47
CC(C)Cn1cc(NCc2cscn2)cn1	9.5
Clc1ccc2cccnc2c1CN1CCCC(Cn2cncn2)C1 (stereo not drawn)	-14.3
COc1cccc(CN(C)C(C)c2ccco2)c1OCCn1ccnc1 (stereo not drawn)	-6.31
COCCNc1cc(C)nn2cnnc12	11.1
COC(=O)Nc1ccc(CNc2cncc(-n3cccn3)n2)cc1	-18.2
OCC1N(Cc2ccc(F)cc2)[C@H]2CC[C@]1(O)CC2 (stereo partly drawn)	-7.04
O=C(NCC1CCOC1)c1ccc(OCC(F)(F)F)nc1 (stereo not drawn)	-5.4

SMILES	cytotoxicity at 70.5 h [%]
COCCN1CCC(CN(CC2CCCO2)C(=O)C2CCOCC2)CC1 (stereo not drawn)	-5.33
CC(C)Cc1nc(CCn2cncn2)n(-c2ccc3c(c2)OCCO3)n1	-18
O=C(NCc1cncc2c1CCN(CC1CCOC1)C2)c1ccco1 (stereo not drawn)	19.6
Cc1nc(Nc2nnc(C)s2)cc(C2CCCN2c2ccncc2)n1 (stereo not drawn)	-5.11
Cc1cnc(N2CCc3cc(C(=O)O)c(N(C)C)nc3CC2)nc1	-7.94
Nc1nc(NCCO)cc(N2CCc3c([nH]c4ccccc34)C2)n1	-7.97
CN1CCN(C2CCN(Cc3noc(C(C)(C)C)n3)CC2)C1=O	9.12
N#Cc1ccc(NCC(=O)Nc2ccn(Cc3cccnc3)n2)cc1	-9.9
CC(=O)NCc1ccc(C(=O)N2CCCCC2Cn2cccn2)o1 (stereo not drawn)	8.35
CNC(=O)c1sc2ccccc2c1C1CCN(c2nc(C)cc(C)n2)C1 (stereo not drawn)	-6.07
FC(F)(F)c1ccnc(N2CCCOCC2)c1	-13.6
NC(=O)CC1CCN(C(=O)c2cccn2Cc2cccs2)CC1	3.87
NC(=O)CN(CC(N)=O)Cc1cccc(Oc2ccccc2)c1	7.82
CCCSCC(=O)Nc1ncn(CC(=O)NCc2ccccc2)n1	-5.44
N#Cc1cccnc1N1CCCC(CO)(CCOc2ccccc2)C1 (stereo not drawn)	-7.83
c1ccc(O[C@H]2C[C@@H]3CN(Cc4cnccn4)C[C@@H]3C2)cc1	-0.72
CN(CCC(F)(F)F)Cc1nc2ccccc2c(=O)[nH]1	-3.56
COCC(=O)NC[C@H]1OC[C@@H](NC2CCC(F)(F)CC2)[C@@H]1O	-8.37
CN(CC1(O)CCN(c2ccccn2)C1)C(=O)Cc1ccsc1 (stereo not drawn)	-6.86
O=C(NC1CC1)[C@@H]1CCO[C@@H]2CCN(C3CCOCC3)C[C@@H]21	-8.31
CCOCC(=O)N1CCCn2c(CN3CCOCC3)nnc2C1	2.86

SMILES	cytotoxicity at 70.5 h [%]
C/C(=C\c1ccco1)CN(C)C(C)Cc1cc(C)ccn1 (stereo not drawn)	-0.46
CCc1nc(N)sc1C(=O)N1CCCC(CCc2ccccc2C)C1 (stereo not drawn)	-6.29
COCCO[C@H]1CCN(C(=O)c2cnccn2)[C@H]1Cc1ccncc1	-1.32
FC(F)(F)CCc1ccnc(NC2CCOC2)n1 (stereo not drawn)	27.9
COC(=O)N1CCN(Cc2ccccc2C(C)(C)C#N)CC1	-5.92
CC(NC(=O)c1csnn1)c1ccc(OCC2CC2)c(F)c1 (stereo not drawn)	14.5
CO[C@@H]1CCN(Cc2ccccn2)[C@@H]2CN(Cc3ccco3)C[C@@H]21	32.3
Cc1nc2c(c(C)c1CC(=O)Nc1cccc(C#N)c1)c(=O)[nH]n2C	15.2
Cn1cc(CN(CC2(O)CNCCOC2)C2CCCCC2)cn1 (stereo not drawn)	-8.06
COc1ccnc(CN2CCCC(CCc3ccccc3)C2)c1OC (stereo not drawn)	3.51
Cc1c(CS(C)(=O)=O)cccc1NCC1CCCCC1	7.16
Cc1ccc(C)c(OC2CCN(C(=O)c3ccc(C)[nH]c3=O)CC2)c1	-11
Cc1nc(C2CCCN(C(=O)c3cc(Cl)c[nH]3)C2)sc1C (stereo not drawn)	-2.27
Cn1ccnc1CN1CCN(Cc2ccccc2)[C@@H]2CS(=O)(=O)C[C@@H]21	-9.92
CNS(=O)(=O)c1csc(C(=O)NCc2sccc2C)c1	-4.77
CNc1ncccc1CN1CCN(C)CC(C(N)=O)C1 (stereo not drawn)	25.3
O=C(NCc1cccnc1)N1CCn2c(Cn3cccn3)cnc2C1	-0.141
CCn1cc(S(=O)(=O)Nc2ccc3[nH]c(C4CCC4)nc3c2)cn1	24.1
COC(=O)CCC(=O)N1CCC2(CN(Cc3ccc(Cl)cc3)C2)C1	-6.67
O=C(Cc1cccc(F)c1)N1CCc2ncnc(N3CCCC3)c2CC1	-1.93
Cc1c(C(=O)N2CCOCC2)n(C)c2ccc(Cl)cc12	-10.5

SMILES	cytotoxicity at 70.5 h [%]
COc1cccc(CNC(=O)c2nc3c(s2)CCN(C(C)=O)CC3)c1	-11
CCS(=O)(=O)c1ncc(CN2CCCC2)n1CCc1ccccc1	-12.5
CC1(C)CCC(C(=O)O)c2ccccc21 (stereo not drawn)	-8.46
CCc1nc(C2CCCN(C(=O)c3cccc4c3ccn4C)C2)no1 (stereo not drawn)	-4.32
COc1ccc(CN2C[C@@H]3COC[C@]3(COc3cccnc3)C2)cc1	-7.11
Cc1cnn(CCCN2C(=O)CCc3ccccc32)c1	11.4
Cc1ncsc1CN1CC[C@H]2OCC[C@@]2(C(=O)N(C)C)C1	-3.45
CC[C@@H]1N(CC2CC2)CCC[C@]12CCC(=O)N2	-1.41
CCn1cc(CNCC(c2ccc(Cl)cc2)n2cccn2)cn1 (stereo not drawn)	-14.8
O=C(CCCN1CCCCC1)N[C@H](C(=O)O)c1cccc(F)c1F	-6.96
COc1ccc2c(ccn2CC(=O)N2CCCC2c2cnn(C)c2)c1 (stereo not drawn)	0.452
COc1ccccc1C(=O)NCc1n[nH]c(C)n1	0.0224
COCCCNC(=O)c1c(C)noc1C(C)C	-11.8
N#Cc1cccc(N2CCCC3(C2)CN(c2nncs2)CCO3)c1 (stereo not drawn)	14
CC(C)c1nnc(NC(=O)CCC(=O)NCC2CCCO2)s1 (stereo not drawn)	-12.5
Cc1cnn(CC2CCCN2C(=O)c2ccc(F)cc2Cl)c1 (stereo not drawn)	0.634
Cc1nc(C(=O)N(CC2CCCO2)c2ccncc2)cs1 (stereo not drawn)	-16.6
O=C1N(Cc2ccc(F)c(F)c2)CCCC1(O)CNCC1CCCCC1 (stereo not drawn)	18.7
CCn1c(NCc2ccccn2)nc2c(C)nn(C)c2c1=O	-3.41
Cc1csc(N2CCN(C(=O)CCc3ccccn3)CC2)n1	-2.58
